Source: patent US11780850B2, “Purification of rapamycin derivatives using temperature induced phase separation” (Biosensors International Group, Ltd., priority 2013, dated 2023)

Legend:
[1] = Oxidation study, exposure to 30% H2O2; type: physicochemical; settings: 30% H2O2 for 3 hours; for weight loss after oxidative degradation (relative to a control sample): assay measurement
Source text: It is therefore apparent that amorphous BA9 is more susceptible to oxidative degradation.

[2] = Dark Control, storage at standard laboratory temperature without light; settings: for Major Degradants, % (RT 4.5 min): HPLC RT 4.5 min; for Major Degradants, % (RT 4.9 min): HPLC RT 4.9 min; for Major Degradants, % (RT 6.2 min): HPLC RT 6.2 min; for Major Degradants, % (RT 10.4 min): HPLC RT 10.4 min; for Major Degradants, % (RT 10.7 min): HPLC RT 10.7 min; for Major Degradants, % (RT 11.0 min): HPLC RT 11.0 min; for Purity Assay, %: standard laboratory temperature, no light, duration of the study
[3] = Photolysis study per ICH Q1B (photostability); settings: for Major Degradants, % (RT 4.2 min): HPLC RT 4.2 min; for Major Degradants, % (RT 4.5 min): HPLC RT 4.5 min; for Major Degradants, % (RT 4.9 min): HPLC RT 4.9 min; for Major Degradants, % (RT 6.2 min): HPLC RT 6.2 min; for Major Degradants, % (RT 7.9 min): HPLC RT 7.9 min; for Major Degradants, % (RT 10.4 min): HPLC RT 10.4 min; for Major Degradants, % (RT 10.7 min): HPLC RT 10.7 min; for Major Degradants, % (RT 11.0 min): HPLC RT 11.0 min
Protocol: Photolysis studies were performed on amorphous and crystalline BA9 (i.e, Form I).

[4] = Dynamic vapor sorption (DVS) experiment; type: physicochemical
Protocol: Batch profiling and polymorph screening methods. BA9 Lots 2A and 2B were purified using precipitation from n-hexanes as described above. After the purification process, Lot 2A (82.9 g) was dissolved in methanol (190 g) and precipitated by adding the methanol solution to water. The combined methanolic solution was transferred to an addition funnel and then slowly charged within 1 hour and 15 minutes into vigorously stirred water for injection (2.18 kg) in a reactor at a temperature range of 0-5° C. After completion of the addition of the methanolic solution of BA9, the resulting white suspension was stirred for an additional 15 minutes at the same temperature range. The precipitated BA9 was isolated in 84.8% yield (purity was 96.3% as determined by HPLC). The suspension was then filtered, and the isolated white solid was washed on the filter. Lot 2A was characterized by XRPD and DSC and Lot 2B was characterized by XRPD, DSC, optical microscopy, and infrared (IR) spectroscopy.
A DVS experiment was run on Lot 2B. The increase in mass of the sample was ˜0.5% at 90% RH.

[5] = Photolysis - VIS/UV, minimum 1.2 million lux hours and not less than 200 W·hours/m^2 per ICH Q1B

Row | SMILES | weight loss after oxidative degradation (relative to a control sample) [1] | Major Degradants, % (RT 4.5 min) [2] | Major Degradants, % (RT 4.9 min) [2] | Major Degradants, % (RT 6.2 min) [2] | Major Degradants, % (RT 10.4 min) [2] | Major Degradants, % (RT 10.7 min) [2] | Major Degradants, % (RT 11.0 min) [2] | Purity Assay, % [2] | Major Degradants, % (RT 4.2 min) ([3]; Photolysis - VIS/UV) | Major Degradants, % (RT 4.5 min) ([3]; Photolysis - VIS/UV) | Major Degradants, % (RT 4.9 min) ([3]; Photolysis - VIS/UV) | Major Degradants, % (RT 6.2 min) ([3]; Photolysis - VIS/UV) | Major Degradants, % (RT 7.9 min) ([3]; Photolysis - VIS/UV) | Major Degradants, % (RT 10.4 min) ([3]; Photolysis - VIS/UV) | Major Degradants, % (RT 10.7 min) ([3]; Photolysis - VIS/UV) | Major Degradants, % (RT 11.0 min) ([3]; Photolysis - VIS/UV) | Purity Assay, % [3, 5] | Purity Assay, % ([3]; T = 0 Control) | also measured
1 | CCOCCOC1CCC(CC(C)C2CC(=O)C(C)C=C(C)C(O)C(OC)C(=O)C(C)CC(C)C=CC=CC=C(C)C(OC)CC3CCC(C)C(O)(O3)C(=O)C(=O)N3CCCCC3C(=O)O2)CC1OC (centres unmarked) [Amorphous BA9, 40-O-(2-ethoxyethyl) rapamycin] | 6.5% | 0.72% | 0.31% | 0.20% | 0.44% | 1.40% | 0.39% | 88.2% | 1.30% | 7.40% | 1.20% | 2.50% | 2.20% | 1.70% | 0.94% | 2.60% | 16.3% | 98.0% | Purity Assay, % ([2]; listed as amorphous BA9): 88.2%; Purity Assay, % ([3]; Photolysis - VIS/UV, minimum 1.2 million lux hours and not less than 200 W·hours/m^2 per ICH Q1B, listed as amorphous BA9): 16.3%
2 | CCOCCOC1CCC(CC(C)C2CC(=O)C(C)C=C(C)C(O)C(OC)C(=O)C(C)CC(C)C=CC=CC=C(C)C(OC)CC3CCC(C)C(O)(O3)C(=O)C(=O)N3CCCCC3C(=O)O2)CC1OC (centres unmarked) [Crystalline BA9, 40-O-(2-ethoxyethyl) rapamycin] | 3.4% | 0.08% | 0.41% | 0.09% | 0.03% | 0.06% | 0.67% | 98.0% | 0.76% | 2.00% | 2.60% | 0.94% | 0.07% | 0.15% | 0.69% | 0.51% | 70.2% | 97.7% | levels of major degradants after oxidative degradation (vs amorphous BA9) ([1]; HPLC): lower levels of major degradants overall; Major Degradants, % (RT 4.2 min) ([2]; HPLC RT 4.2 min): 0.01%; Purity Assay, % ([2]; listed as crystalline BA9): 98.0%; solid form of post DVS sample by XRPD ([4]; after DVS experiment): confirmed as Form I; increase in mass of the sample ([4]; at 90% RH): ~0.5%; Purity Assay, % ([3]; Photolysis - VIS/UV, minimum 1.2 million lux hours and not less than 200 W·hours/m^2 per ICH Q1B, listed as crystalline BA9): 70.2%
